# Results reported in US11351221B2, “SMAC mimetic” (Medivir AB, priority 2009, dated 2022).
# What was measured:
# cIAP-1 = biological target: T1, cIAP-1 (Homo sapiens, UniProt Q13490); experiment: cIAP degradation assay (GFP-cIAP-1); type: cell-based; conditions: for DC50: A375Gc1 cells, 2 h treatment, 50% of GFP signal inhibited (FACS), read-out: GFP-cIAP-1 IC50; for IC50 Ratio cIAP-2/cIAP-1: ratio of GFP-cIAP-2 to GFP-cIAP-1 degradation IC50
# T1 construct: expressed in transfected cells; host or cells: A375 (A375Gc1)
# T1 sequence (Q13490 whole entry, species assumed): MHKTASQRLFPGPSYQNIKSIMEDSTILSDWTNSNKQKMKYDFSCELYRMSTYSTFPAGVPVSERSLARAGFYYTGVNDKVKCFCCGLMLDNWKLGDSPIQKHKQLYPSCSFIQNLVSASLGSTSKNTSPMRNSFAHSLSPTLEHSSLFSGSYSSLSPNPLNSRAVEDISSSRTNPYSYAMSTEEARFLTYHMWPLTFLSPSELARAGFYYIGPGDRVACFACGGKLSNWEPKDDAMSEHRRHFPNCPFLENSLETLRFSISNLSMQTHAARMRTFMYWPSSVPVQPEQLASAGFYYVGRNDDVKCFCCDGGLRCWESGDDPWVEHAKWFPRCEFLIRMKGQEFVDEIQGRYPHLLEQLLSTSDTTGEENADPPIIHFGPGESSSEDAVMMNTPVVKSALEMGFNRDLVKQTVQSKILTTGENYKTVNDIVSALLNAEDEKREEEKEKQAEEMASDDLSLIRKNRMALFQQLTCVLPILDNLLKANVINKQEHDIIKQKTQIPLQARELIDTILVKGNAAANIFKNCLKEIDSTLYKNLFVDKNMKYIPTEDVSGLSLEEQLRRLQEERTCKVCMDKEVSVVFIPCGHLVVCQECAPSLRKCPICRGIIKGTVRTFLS
# Experimental: (§1) Briefly, A375 cell lines expressing GFP-tagged cIAP-1 and cIAP-2 were generated by transfecting HA2xEGFP-pcDNA3 vector containing either cIAP-1 (A375Gc1) or cIAP-2 (A375Gc2) coding region. 2×10^4 of A375Gc1 or A375Gc2 cells were grown in 96-well plate and treated with various concentrations of test compounds for 2 h. After incubation, cells were collected by trypsinization and suspended in 150 μl of DMEM-10% FBS. A total of 10^4 cells were analyzed using a FACScan (Becton Dickinson). GFP fluorescence was monitored by using an excitation filter at 488 nm and emission was measured with a 530 nm filter.
# cIAP-2 = biological target: T2, cIAP-2 (Homo sapiens, UniProt Q13489); experiment: cIAP degradation assay (GFP-cIAP-2); type: cell-based; conditions: A375Gc2 cells, 2 h treatment, 50% of GFP signal inhibited (FACS); read-out: GFP-cIAP-2 IC50
# T2 construct: expressed in transfected cells; host or cells: A375 (A375Gc2)
# T2 sequence (Q13489 whole entry, species assumed): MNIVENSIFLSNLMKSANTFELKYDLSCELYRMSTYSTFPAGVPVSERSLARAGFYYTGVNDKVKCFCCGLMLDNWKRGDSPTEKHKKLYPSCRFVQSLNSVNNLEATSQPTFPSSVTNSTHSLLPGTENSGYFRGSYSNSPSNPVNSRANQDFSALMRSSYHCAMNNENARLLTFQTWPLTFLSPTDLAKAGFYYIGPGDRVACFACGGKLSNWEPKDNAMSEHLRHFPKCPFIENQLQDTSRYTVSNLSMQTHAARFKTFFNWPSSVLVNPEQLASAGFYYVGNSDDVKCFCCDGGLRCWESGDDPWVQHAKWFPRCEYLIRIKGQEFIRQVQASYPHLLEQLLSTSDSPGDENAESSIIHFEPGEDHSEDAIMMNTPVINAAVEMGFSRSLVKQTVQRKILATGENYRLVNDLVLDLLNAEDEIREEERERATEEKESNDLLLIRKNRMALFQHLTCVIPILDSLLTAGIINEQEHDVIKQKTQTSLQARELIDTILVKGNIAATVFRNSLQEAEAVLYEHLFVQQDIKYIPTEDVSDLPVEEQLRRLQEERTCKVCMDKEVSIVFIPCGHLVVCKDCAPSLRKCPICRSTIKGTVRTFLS
# Experimental: as §1, with “The concentration inducing degradation of cIAP-1 and cIAP-2 by 50% (IC50) for various compounds was determined by monitoring the disappearance of Green Fluorescent Protein (GFP)-signal in A375 cells. Briefly,” for “Briefly,”, “filter. IC50 is defined as the concentration of drug at which 50% of GFP signal was inhibited.” for “filter.”
# XIAP = biological target: T3, XIAP (Homo sapiens, UniProt P98170); experiment: Caspase-3 derepression assay; type: biochemical; conditions: MDA-MB-231 hypotonic lysate activated with cytochrome c and dATP; zDEVD-R110(2) substrate
# T3 construct: endogenous in cells; host or cells: MDA-MB-231 (ATCC), soluble hypotonic lysate
# T3 sequence (P98170 whole entry): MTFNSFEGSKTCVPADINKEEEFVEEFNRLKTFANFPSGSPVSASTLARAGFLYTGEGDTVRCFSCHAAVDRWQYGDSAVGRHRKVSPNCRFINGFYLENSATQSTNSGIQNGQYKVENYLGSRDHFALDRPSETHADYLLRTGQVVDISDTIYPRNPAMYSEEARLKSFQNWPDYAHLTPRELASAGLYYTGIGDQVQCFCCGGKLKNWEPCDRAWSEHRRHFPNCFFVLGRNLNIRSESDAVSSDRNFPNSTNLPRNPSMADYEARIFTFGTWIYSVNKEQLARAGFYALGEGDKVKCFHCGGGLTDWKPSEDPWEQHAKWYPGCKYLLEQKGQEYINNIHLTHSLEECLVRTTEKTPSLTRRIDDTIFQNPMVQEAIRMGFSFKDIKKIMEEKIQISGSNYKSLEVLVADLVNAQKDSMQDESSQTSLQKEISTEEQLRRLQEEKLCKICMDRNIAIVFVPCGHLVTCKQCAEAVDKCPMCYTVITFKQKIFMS
# Experimental: Cell pellet was washed one time by resuspending in 5 mL hypotonic lysis buffer (20 mM HEPES, pH7.5, 10 mM KCl, 1.5 mM MgCl2, 1.0 mM EDTA, 1.0 mM DTT) and recollected by centrifugation. Pellet was next resuspended in 1 volume of hypotonic lysis buffer supplemented with a complete protease inhibitor tablet (Roche) and allowed to swell on ice for 30 minutes. Cells were disrupted by approximately 50 passages through a 27 gauge needle. Lysis was monitored by light microscopy. Lysate was centrifuged at 12000×g for 10 minutes at 4° C. to remove membrane fraction, unlysed cells and debris. The soluble fraction was collected for protein concentration determination and subsequent assay analysis.
# The hypotonic lysate (25 μg protein), 50 μg/mL cytochrome c and 10 mM dATP were combined in a microcentrifuge tube to a final volume of 9 μl in hypotonic lysis buffer followed by addition of test compound and incubated for 30 minutes at room temp. Following incubation 50 μl of hypotonic lysis buffer containing 5 μM of pro-fluorescent rhodamine-110(2) based caspase-3 substrate zDEVD-R110(2) was added and fluorescence intensity was monitored over time. Activation of the lysate by addition of cytochrome c and dATP results in apoptosome formation and subsequent activation of caspases-9 and -3.
# [1] = tested on: SKOV-3 ovarian tumor cell; experiment: SKOV-3 cytotoxicity (MTT assay); type: cell-based; conditions: Homo sapiens, SK-OV-3 cells, 72 hrs, concentration giving 50% cell survival
# Experimental: SKOV-3 ovarian tumor cell cytotoxicity data were generated substantially as follows. The MTT (3-(4,5-Dimethylthiazol-2-yl)-2,5-diphenyltetrazolium bromide) assay is an example of an assay that has been used for measuring cell growth as previously described (Hansen, M. B., Nielsen, S. E., and Berg, K. (1989) J. Immunol Methods 119, 203-210) and incorporated herein by reference in its entirety. Briefly, SK-OV-3 cells were seeded in 96-well plates in McCoy's medium containing 10% fetal bovine serum albumin (5,000 per well) and incubated overnight at 37° C. The next day, test compounds were added at various concentrations (0.003-10 μM) and the plates were incubated at 37° C. for an additional 72 hrs. This incubation time was optimal for measuring inhibitory effects of different analogs. Fifty microliters of 5 mg/mL MTT reagent to each well was added and the plates were incubated at 37° C. for 3 hours. At the end of the incubation period, 50 microliters of DMSO was added to each well to dissolve cells and the optical density (OD) of the wells was measured using a microplate reader (Victor^2 1420, Wallac, Finland) at 535 nm. Cell survival (CS) was calculated by the following equation: CS=(OD treated well/mean OD control wells)×100%
# The CC50, defined as the drug concentration that results in 50% CS, was derived by calculating the point where the dose-response curve crosses the 50% CS point using GraphPad Prism.
# [2] = type: in vivo; conditions: for Mortality: 3 mg/Kg, QDx4 i.v. bolus; for Bone marrow hypocellularity of the erythroid series (anatomic pathology) / Hypercellularity of the myeloid series (anatomic pathology) / Hypertrophy and hyperplasia of megakaryocytes (anatomic pathology) / Type 2 pneumocyte hypertrophy/hyperplasia in the lungs (anatomic pathology) / Clinical signs: 1 mg/kg/day
# Description: Body weight loss (BWL), mortality and additional toxicity data were generated substantially as follows. […] Body weights were taken on day 4 and are shown as percent change from day 1.
# [3] = tested on: MDA-MB-231 human breast tumor cells; experiment: MDA-MB-231 xenograft tumor growth delay; type: in vivo, female nude mice
# Experimental: MDA-MB-231 xenograft data were generated substantially as follows. MDA-MB-231 human breast tumor cells were injected into the mammary fat pad of female nude mice and dosing initiated twelve days later at an average tumor volume of approximately 148 mm^3. No tumor burden was associated with this model based on lack of weight loss or animal morbidity in control groups. Mice were injected subcutaneously into the mammary fat pad with 1×10^7 cells suspended in 200 μl of a 1:1 HBSS: Matrigel solution; injected cells were within nine passages of the original lot. Pre-study tumor volumes were recorded beginning approximately one week prior to the estimated start date. When tumors reached approximately 150 mm^3 animals are matched by tumor volume into treatment and control groups and dosing initiated (Day 0); mice are tagged and followed individually throughout the experiment. Animals were dosed by weight (0.01 mL per gram; 10 ml/Kg).
# Beginning on Day 0, animals were observed daily and weighed twice weekly using a digital scale (Ohaus SP601); data including individual and mean gram weights (Mean We±SD), mean percent weight change versus Day 0 (% vD0) and mean percent weight change versus prior measurement (% vD−x) were recorded for each group and plotted at study completion.
# Beginning on Day 0, tumor dimensions were measured twice weekly by digital caliper (Fowler Ultra-Cal IV) and data including individual and mean estimated tumor volumes (Mean TV±SEM) recorded for each group; tumor volume was calculated using the formula: TV=width^2×length×0.52. Individual mice reaching the designated study endpoint (an estimated tumor volume of approximately 1 cm^3) were assigned a time to endpoint (TTE) value corresponding to that day; the tumor growth delay (TGD) study was concluded once all mice reach the study endpoint or sixty days following study initiation. At study completion, TGD and % TGD are calculated using the median TTE (MTTE) value for each treatment (T) group versus control (C) by the formulas: TGD(days)=T−C and % TGD=T−C/C×100, wherein T−C is the difference between MTTE-Treatment Group and MTTE-Control. Tumored animals not reaching the designated volume endpoint by study completion are considered long-term survivors (LTS) and assigned a TTE value corresponding to the final study day; tumor-free animals are not included in TGD calculations. A Log-rank test is used to determine statistically significant differences in overall survival experience between each treated group compared to control. Individual mice reporting a tumor volume ≤50% of the Day 0 measurement for two consecutive measurements over a seven day period were considered partial responders (PR). If the PR persisted until study completion, percent tumor regression (% TR) was determined using the formula: % TR=1−Tf/Ti×100; a mean value was calculated if multiple PR mice occurred in one group. Individual mice lacking palpable tumors (<4×4 mm^2 for two consecutive measurements over a seven day period) were classified as complete responders (CR); a CR that persisted until study completion was considered a tumor-free survivor (TFS); TFS animals are excluded from TGD calculations and statistical analysis. Statistical differences in MTTE values between control and treatment groups are compared using a Log Rank test.
Structure (SMILES),DC50 (cIAP-1) [nM],IC50 Ratio cIAP-2/cIAP-1 (cIAP-1),DC50 (cIAP-2) [nM],IC50 (XIAP) [nM],CC50 [1] [nM],Mortality ([2]; rat),"Bone marrow hypocellularity of the erythroid series (anatomic pathology) ([2]; rat, in vivo)","Hypercellularity of the myeloid series (anatomic pathology) ([2]; rat, in vivo)","Hypertrophy and hyperplasia of megakaryocytes (anatomic pathology) ([2]; rat, in vivo)","Type 2 pneumocyte hypertrophy/hyperplasia in the lungs (anatomic pathology) ([2]; rat, in vivo)","Clinical signs ([2]; rat, in vivo, iv)",further results
CN[C@@H](C)C(=O)N[C@H](C(=O)N1C[C@@H](O)C[C@H]1Cc1c(-c2[nH]c3cc(F)ccc3c2C[C@@H]2C[C@H](O)CN2C(=O)[C@@H](NC(=O)[C@H](C)NC)C(C)C)[nH]c2cc(F)ccc12)C(C)C [Compound 2],4,1.8,7,13.4,0.5,–,–,–,–,–,–,–
CN[C@@H](C)C(=O)N[C@H](C(=O)N1C[C@@H](O)C[C@H]1Cc1c(-c2[nH]c3cc(F)ccc3c2C[C@@H]2C[C@H](O)CN2C(=O)[C@@H](NC(=O)[C@H](C)NC)[C@@H](C)O)[nH]c2cc(F)ccc12)[C@@H](C)O [Compound 3],328,2.1,674,0.2,13,–,–,–,–,–,–,–
CN[C@@H](C)C(=O)N[C@H](C(=O)N1C[C@@H](O)C[C@H]1Cc1c(-c2[nH]c3cc(F)ccc3c2C[C@@H]2C[C@H](O)CN2C(=O)[C@@H](NC(=O)[C@H](C)NC)[C@H](C)O)[nH]c2cc(F)ccc12)[C@H](C)O [Compound 4],464,1.3,604,0.35,2,caused the animals to die,marked to severe,mild to moderate,mild to moderate,mild to moderate,"lethargy, increased/irregular respiration and increased heart rate",–
CN[C@@H](C)C(=O)N[C@H](C(=O)N1C[C@@H](O)C[C@H]1Cc1c(-c2[nH]c3cc(F)ccc3c2C[C@@H]2C[C@H](O)CN2C(=O)[C@@H](NC(=O)[C@H](C)NC)[C@@H](C)OC)[nH]c2cc(F)ccc12)[C@@H](C)OC [Compound 5],10,3.7,37,0.36,0.13,caused the animals to die,marked to severe,mild to moderate,mild to moderate,mild to moderate,"lethargy, increased/irregular respiration and increased heart rate","Additional clinical observations ([2]; rat, in vivo, 1 mg/kg): dehydration, ungroomed appearance, chromorhinorrhea, alopecia (head), and excessive scratching; Long-term survivors ([3]; 15 mg/Kg i.p., q3dx5): 3/10; Partial tumor regression ([3]; 15 mg/Kg i.p., q3dx5): five; T−C value (tumor growth delay) ([3]; 15 mg/Kg i.p., q3dx5): 21 days; Weight loss compared to mice dosed with Compound 15 at 20 mg/Kg ([3]; nude mice, 15 mg/Kg i.p., q3dx5): greater"
"CC[C@H](NC(=O)[C@H](C)NC)C(=O)N1C[C@@H](O)C[C@H]1Cc1c(-c2[nH]c3cc(F)ccc3c2C[C@@H]2C[C@H](O)CN2C(=O)[C@H](CC)NC(=O)[C@H](C)NC)[nH]c2cc(F)ccc12 [Compound 15, N-{1S-[2R-(6,6′-Difluoro-3′-{4S-hydroxy-1-[2S-(2S-methylamino-propionylamino)-butyryl]-pyrrolidin-2R-ylmethyl}-1H,1′H-[2,2′]biindolyl-3-ylmethyl)-4S-hydroxy-pyrrolidine-1-carbonyl]-propyl}-2S-methylamino-propionamide]",–,–,174,–,0.14,–,–,–,–,–,–,"Tolerability in the rat as compared to Compounds 4 and 5, dose per dose ([2]; Sprague-Dawley, in vivo, iv, 4 days): approximately 5 fold; Long-term survivors ([3]; 20 mg/Kg i.p., q3dx5): 6/10; Partial tumor regression ([3]; 20 mg/Kg i.p., q3dx5): three; T−C value (tumor growth delay) ([3]; 20 mg/Kg i.p., q3dx5): 22 days; Long-term survivors ([3]; 40 mg/Kg i.p., q3dx5): 9/10; Partial tumor regression ([3]; 40 mg/Kg i.p., q3dx5): three; T−C value (tumor growth delay) ([3]; 40 mg/Kg i.p., q3dx5): 22 days; Long-term survivors ([3]; 60 mg/Kg i.p., q3dx5): 8/10; Partial tumor regression ([3]; 60 mg/Kg i.p., q3dx5): seven; T−C value (tumor growth delay) ([3]; 60 mg/Kg i.p., q3dx5): 22 days; Minimal effective dose ([3]; MDA-MB-231 xenograft model, subsequent studies): less than 1 mg/Kg"
